Measured values: patent publication US8173360B2, “Cell death inhibitor” (Takeda Pharmaceutical Company Limited, priority 2002, dated 2012)

Key:
rat MIF = molecular target: T1, rat MIF (Rattus norvegicus, UniProt P30904); experiment: Binding to immobilized rat MIF by surface plasmon resonance (BIACORE 3000); conditions: 10 μM in PBS, rat MIF immobilized on sensor chip CM5
T1 construct: the region encoding MIF was amplified from the complementary DNA (cDNA) library of rat and mouse brains; made in house; host or cells: Escherichia coli BL21 (DE3)
Protocol: The binding of rat MIF obtained in REFERENCE EXAMPLE 6 to Compound 1 obtained in REFERENCE EXAMPLE 1 was analyzed using BIACORE 3000 (manufactured by Biacore).
Rat MIF was immobilized on a sensor chip CM5 (manufactured by Biacore). Then, phosphate buffered saline (PBS) containing 10 μM of Compound 1 was flown over the sensor chip and changes in the surface plasmon resonance signal were monitored as the binding of the compound to rat MIF.
Rat MIF obtained in REFERENCE EXAMPLE 6 was immobilized on a sensor chip CM5 (manufactured by Biacore Co., Ltd.). Thereafter, phosphate buffered saline (PBS) containing 10 μM of 3-[2-(4-oxo-4H-1,3-benzothiazin-2-yl)-4-pyridyl]propionic acid (the compound of EXAMPLE 308 described in WO 03/020719) was flown over the sensor chip and changes in surface plasmon resonance signal were monitored as the binding of the compound to rat MIF.

[1] = system: primary cardiomyocytes derived from rat neonates; conditions: simvastatin 0.3 μM or atorvastatin 1 μM, 3 days
Protocol: The primary cardiomyocytes derived from rat neonates obtained in EXPERIMENTAL EXAMPLE 2 were suspended in Medium 199 containing 10% fetal cow serum in 6×10^5 cells/ml, and the suspension was seeded on a 96-well plate in 0.1 mlwell, followed by incubation for a day in a CO2 incubator set at 37° C. and 5% CO2. After stirring with a micromixer (manufactured by Taiyo Kagaku Kogyo Co., Ltd.), the medium was replaced 3 times with serum-free Medium 199 to remove serum. […] Thereafter, fetal cow serum was added thereto to become 10%. After further incubation in a CO2 incubator set at 37° C. and 5% CO2 for about 17 hours, the viable cell count was determined using a cell count assay kit (manufactured by Dojin Chemical Laboratory) in which WST-8 was used as a chromogen, thereby to examine the inhibitory activity of myocardial cell death induced by the statin. The experiment described above was carried out independently in 3 runs. The viable cell count in each of the experimental groups was named the mean value (±SD) of the viable cell counts in each experimental group, when the viable cell count in the group with no statin added was made 1.

[2] = system: Human normal articular chondrocytes; experiment: Inhibitory activity against cell death of human articular chondrocytes induced by NO (MTT); format: cell-based; conditions: for Cell Death Inhibition Rate: 1.5 mM sodium nitroprusside 5 hours, mean ±SD
Protocol: Human normal articular chondrocytes (Clonetics, Inc.) were proliferated in a growth medium for articular chondrocytes (CGM, Clonetics, Inc.) in monolayer culture. Then, the cells were suspended in 1.2% alginate-containing 155 mM NaCl solution in a density of 2.0×10^6 cells/ml, and beads having a 2 mm diameter were prepared using a syringe with a 22 gauge needle. The beads were incubated in a differentiation medium for articular chondrocytes (CDM, Clonetics, Inc.) charged in a 96-well round-bottomed plate (1 bead/well, manufactured by FALCON) for further 7 days. The medium was replaced by α-modified minimum essential medium containing Compound 1 (0.1 μM or 1 μM) and 10% fetal cow serum, followed by incubation for 48 hours and then for 5 hours in the co-presence of 1.5 mM sodium nitroprusside (NO generator, manufactured by Sigma). As control drugs, caspase 3 inhibitor (Z-DEVD-FMK (SEQ ID NO: 5), 100 μM, manufactured by R & D Systems, Inc.) and caspase 9 inhibitor (Z-LEHD-FMK (SEQ ID NO: 6), 100 μM, manufactured by R & D Systems, Inc.) were similarly monitored for their activities. After completion of the experiment, alginate was removed and the cell survival rate was determined by the MTT technique.
In the table, the numerical values indicate mean values (±SD) of the cell death inhibition rates as converted from the measurement data by the MTT technique. The cell survival rate after the addition of 1.5 mM sodium nitroprusside (without addition of either Compound 1 or control drug) was 31.9%.

[3] = system: genes under control of Antioxidant response element (ARE); experiment: Gene expression analysis by DNA chip; format: cell-based, rat; conditions: for Increasing Rate of Expression: 21 hours, without compound = 1
Protocol: After gently stiffing, the plate was washed 3 times with Medium 199 medium to remove serum. […] The medium was then removed and total RNA was recovered using RNeasy Mini Kit (manufactured by QIAGEN). Using the total RNA, exhaustive analysis of gene expression was performed on GeneChip arrays for expression analysis (Rat Genome U34A Arrays: manufactured by AFFYMETRIX). The increasing rate of expression of each gene was expressed in terms of the expression level with the addition of the compound, when the expression level without addition of any compound was made 1.

- binding of the compound to rat MIF (changes in surface plasmon resonance signal) (rat MIF): binds to MIF
SMILES: O=c1nc(-c2ccccn2)sc2ccccc12 [Compound 1, 2-(2-Pyridyl)-4H-1,3-benzothiazin-4-one]
- inhibition of myocardial cell death induced by statin [1]: exhibits the activity of inhibiting myocardial cell death induced by the HMG-CoA reductase inhibitor
- Cell Death Inhibition Rate ([2]; 0.1 μM): 44.7 ± 0.9
- Cell Death Inhibition Rate ([2]; 1 μM): 57.6 ± 7.0
- inhibitory activity against cell death of human articular chondrocytes induced by NO ([2]; statement in words): has the inhibitory activity against the cell death of human articular chondrocytes induced by NO
- Increasing Rate of Expression ([3]; Bilirunin-specific UDP-glucuronosyltransferase): 5.2
- Increasing Rate of Expression ([3]; Gamma-glutamylcysteine synthetase): 2.4
- Increasing Rate of Expression ([3]; Glutathione S-transferase Yb subunit): 2.5
- Increasing Rate of Expression ([3]; Glutathione S-transferase Yc1 subunit): 2.1
- Increasing Rate of Expression ([3]; Heme oxygenase-1): 2.0
- Increasing Rate of Expression ([3]; Liver glutathione S-transferase Ya subunit): 11.6
- Increasing Rate of Expression ([3]; Liver glutathione S-transferase Yc subunit): 2.3
- Increasing Rate of Expression ([3]; NAD(P)H-menadione oxidereductase): 2.8
- Increasing Rate of Expression ([3]; NAD(P)H: quinone reductase): 9.4
- Increasing Rate of Expression ([3]; UDP-glucuronosyltransferase, exon 1): 5.0
- expression of the genes under control of Antioxidant response element (ARE) ([3]; statement in words): enhances expression of the genes under control of Antioxidant response element (ARE)
